The values that follow are results of earlier work, collected in patent publication US20100113478A1, “INDOLONE MODULATORS OF 5-HT3 RECEPTOR” (AUSPEX PHARMACEUTICALS, INC., priority 2008, published 2010).

The structures appear in SMILES notation.

For the series the following is noted: women compared with men.

`Cc1[nH]cnc1CN1CCc2c(c3ccccc3n2C)C1=O` [alosetron, 5-methyl-2-((5-methyl-1H-imidazol-4-yl)methyl)-2,3,4,5-tetrahydro-1H-pyrido[4,3-b]indol-1-one]: the “alosetron clearance lower in women than in men” value is 30%.
